According to patent US20210300909A1, “IMMUNOMODULATORS, COMPOSITIONS AND METHODS THEREOF” (BETTA PHARMACEUTICALS CO., LTD, priority 2018, published 2021):

Molecular target: T1, PD-1/PD-L1 protein/protein interaction (Homo sapiens, UniProt Q9NZQ7)
T1 construct: Recombinant human PD-L1 protein (19-238) with a His-tag at the C-terminus; purchased AcroBiosystems PD1-H5229 (PD-L1); PD1-H5257 (PD-1)
Test: PD-1/PD-L1 homogenous time-resolved fluorescence (HTRF) binding assay
Conditions: not given
Experimental: Resolved Fluorescence (HTRF) Binding Assay
The assays were conducted in a standard black 384-well polystyrene plate with a final volume of 20 μL. Inhibitors were first serially diluted in DMSO and then added to the plate wells before the addition of other reaction components. The final concentration of DMSO in the assay was 1%. The assays were carried out at 25° C. in the PBS buffer (pH 7.4) with 0.05% Tween-20 and 0.1% BSA. […] Plates were centrifuged and proteins were preincubated with inhibitors for 40 min. The incubation was followed by the addition of 10 μL of HTRF detection buffer supplemented with Europium cryptate-labeled anti-human IgG (PerkinElmer-AD0212) specific for Fc and anti-His antibody conjugated to SureLight®-Allophycocyanin (APC, PerkinElmer-AD0059H). After centrifugation, the plate was incubated at 25° C. for 60 min. […] Final concentrations in the assay were […], 10 nM PD-L1, nM europium anti-human IgG and 20 nM anti-His-Allophycocyanin. IC50 determination was performed by fitting the curve of percent control activity versus the log of the inhibitor concentration using the GraphPad Prism 5.0 software.

T1 sequence (Q9NZQ7 19-238): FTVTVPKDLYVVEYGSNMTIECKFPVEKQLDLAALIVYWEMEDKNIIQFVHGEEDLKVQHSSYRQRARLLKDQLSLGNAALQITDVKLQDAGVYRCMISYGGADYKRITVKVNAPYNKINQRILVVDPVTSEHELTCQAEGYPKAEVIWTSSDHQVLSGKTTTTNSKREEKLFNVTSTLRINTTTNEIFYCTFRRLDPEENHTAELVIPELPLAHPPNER

Row | Structure (SMILES) | IC50 [nM]
1 | COc1cc2oc(-c3cccc(-c4cccc(OCCCN5CCOCC5)c4)c3C)nc2cc1CN1CCC(F)(F)CC1C(=O)O (centres unmarked) [Compound 16, 4,4-difluoro-1-((6-methoxy-2-(2-methyl-3′-(3-morpholinopropoxy)-[1,1′-biphenyl]-3-yl)benzo[d]oxazol-5-yl)methyl)piperidine-2-carboxylic acid] | 25 to 150
2 | COc1cc2oc(-c3cccc(-c4cccc(CC5CC5CN5CCOCC5)c4C)c3C)nc2cc1CN1CCCCC1C(=O)O (centres unmarked) [Compound 28, 1-((2-(2,2′-dimethyl-3′-((2-(morpholinomethyl)cyclopropyl)methyl)-[1,1′-biphenyl]-3-yl)-6-methoxybenzo[d]oxazol-5-yl)methyl)piperidine-2-carboxylic acid] | 25 to 150
3 | Cc1c(OCCCN2CCOCC2)cccc1-c1cccc(-c2nc3cc(CN(C)CC(=O)O)c(N(C)C)cc3o2)c1C [Compound 37, N-((2-(2,2′-dimethyl-3′-(3-morpholinopropoxy)-[1,1′-biphenyl]-3-yl)-6-(dimethylamino)benzo[d]oxazol-5-yl)methyl)-N-methylglycine] | < 25
4 | COc1cc2oc(-c3cccc(-c4cccc(OCCCN5CCOCC5)c4F)c3C)nc2cc1CN1CCCCC1C(=O)O (centres unmarked) [Compound 9, 1-((2-(2′-fluoro-2-methyl-3′-(3-morpholinopropoxy)-[1,1′-biphenyl]-3-yl)-6-methoxybenzo[d]oxazol-5-yl)methyl)piperidine-2-carboxylic acid] | < 25
5 | COc1cc2oc(-c3cccc(-c4cccc(OCCCN5CCOCC5)c4)c3C)nc2cc1CNC(C)(CO)C(=O)O (centres unmarked) [Compound 21, 3-hydroxy-2-(((6-methoxy-2-(2-methyl-3′-(3-morpholinopropoxy)-[1,1′-biphenyl]-3-yl)benzo[d]oxazol-5-yl)methyl)amino)-2-methylpropanoic acid] | < 25
6 | COc1cc2oc(-c3cccc(-c4cccc(/C=C/CCN5CCOCC5)c4C)c3C)nc2cc1CN1CCCCC1C(=O)O (centres unmarked) [Compound 7, (E)-1-((2-(2,2′-dimethyl-3′-(4-morpholinobut-1-en-1-yl)-[1,1′-biphenyl]-3-yl)-6-methoxybenzo[d]oxazol-5-yl)methyl)piperidine-2-carboxylic acid] | < 25
7 | Cc1c(-c2ccccc2)cccc1-c1nc2cc(CN3CCCCC3C(=O)O)c(OC(C)C)cc2o1 (centres unmarked) [Compound 24, 1-((6-isopropoxy-2-(2-methyl-[1,1′-biphenyl]-3-yl)benzo[d]oxazol-5-yl)methyl)piperidine-2-carboxylic acid] | < 25
8 | COc1cc2oc(-c3cccc(-c4cccc(CCCCN5CCOCC5)c4)c3C)nc2cc1CN1CCCCC1C(=O)O (centres unmarked) [Compound 10, 1-((6-methoxy-2-(2-methyl-3′-(4-morpholinobutyl)-[1,1′-biphenyl]-3-yl)benzo[d]oxazol-5-yl)methyl)piperidine-2-carboxylic acid] | 25 to 150
9 | COc1cc2oc(-c3cccc(-c4cccc(CC5OC5CN5CCOCC5)c4C)c3C)nc2cc1CN1CCCCC1C(=O)O (centres unmarked) [Compound 27, 1-((2-(2,2′-dimethyl-3′-((3-(morpholinomethyl)oxiran-2-yl)methyl)-[1,1′-biphenyl]-3-yl)-6-methoxybenzo[d]oxazol-5-yl)methyl)piperidine-2-carboxylic acid] | 25 to 150
10 | COc1cc2oc(-c3cccc(-c4cccc(C/C=C/CN5CCOCC5)c4C)c3C)nc2cc1CN1CCCCC1C(=O)O (centres unmarked) [Compound 6, (E)-1-((2-(2,2′-dimethyl-3′-(4-morpholinobut-2-en-1-yl)-[1,1′-biphenyl]-3-yl)-6-methoxybenzo[d]oxazol-5-yl)methyl)piperidine-2-carboxylic acid] | < 25
11 | COCCN(C)CCCOc1cccc(-c2cccc(-c3nc4cc(CN5CCCCC5C(=O)O)c(OC)cc4o3)c2C)c1C (centres unmarked) [Compound 31, 1-((6-methoxy-2-(3′-(3-((2-methoxyethyl)(methyl)amino)propoxy)-2,2′-dimethyl-[1,1′-biphenyl]-3-yl)benzo[d]oxazol-5-yl)methyl)piperidine-2-carboxylic acid] | < 25
12 | COc1cc2oc(-c3cccc(-c4cccc(NC(=O)CCN5CCOCC5)c4)c3C)nc2cc1CN1CCOCC1C(=O)O (centres unmarked) [Compound 17, 4-((6-methoxy-2-(2-methyl-3′-(3-morpholinopropanamido)-[1,1′-biphenyl]-3-yl)benzo[d]oxazol-5-yl)methyl)morpholine-3-carboxylic acid] | < 25
13 | Cc1c(-c2cccc(OCCCN3CCOCC3)c2)cccc1-c1nc2cc(CN3CCCCC3C(=O)O)c(OCc3ccccn3)cc2o1 (centres unmarked) [Compound 22, 1-((2-(2-methyl-3′-(3-morpholinopropoxy)-[1,1′-biphenyl]-3-yl)-6-(pyridin-2-ylmethoxy)benzo[d]oxazol-5-yl)methyl)piperidine-2-carboxylic acid] | 25 to 150

Second part, the compound after the results:

Row | IC50 [nM] | Structure (SMILES)
14 | < 25 | COc1cc2sc(-c3cccc(-c4cccc(OCCCN5CCOCC5)c4)c3C)nc2cc1CN1CCCC1C(=O)O (centres unmarked) [Compound 25, ((6-methoxy-2-(2-methyl-3′-(3-morpholinopropoxy)-[1,1′-biphenyl]-3-yl)benzo[d]thiazol-5-yl)methyl)proline]
15 | < 25 | COc1cc2nc(-c3cccc(-c4cccc(OCCCN5CCOCC5)c4)c3C)oc2cc1CN1CCCCC1C(=O)O (centres unmarked) [Compound 34, 1-((5-methoxy-2-(2-methyl-3′-(3-morpholinopropoxy)-[1,1′-biphenyl]-3-yl)benzo[d]oxazol-6-yl)methyl)piperidine-2-carboxylic acid]
16 | < 25 | COc1cc2c(cc1CN1CCOCC1C(=O)O)nc(-c1cccc(-c3cccc(OCCCN4CCOCC4)c3)c1C)n2C (centres unmarked) [Compound 14, 4-((6-methoxy-1-methyl-2-(2-methyl-3′-(3-morpholinopropoxy)-[1,1′-biphenyl]-3-yl)-1H-benzo[d]imidazol-5-yl)methyl)morpholine-3-carboxylic acid]
17 | < 25 | COc1cc2nc(-c3cccc(-c4cccc(OCCCN5CCOCC5)c4)c3C)sc2cc1CN1CCCCC1C(=O)O (centres unmarked) [Compound 35, 1-((5-methoxy-2-(2-methyl-3′-(3-morpholinopropoxy)-[1,1′-biphenyl]-3-yl)benzo[d]thiazol-6-yl)methyl)piperidine-2-carboxylic acid]
18 | < 25 | COc1cc2c(cc1CN1CCCCC1C(=O)O)nc(-c1cccc(-c3cccc(OCCCN4CCOCC4)c3F)c1C)n2C (centres unmarked) [Compound 13, 1-((2-(2′-fluoro-2-methyl-3′-(3-morpholinopropoxy)-[1,1′-biphenyl]-3-yl)-6-methoxy-1-methyl-1H-benzo[d]imidazol-5-yl)methyl)piperidine-2-carboxylic acid]
19 | < 25 | COc1cc2nc(-c3cccc(-c4cccc(OCCCN5CCOCC5)c4)c3C)n(C)c2cc1CN1CCCCC1C(=O)O (centres unmarked) [Compound 33, 1-((5-methoxy-1-methyl-2-(2-methyl-3′-(3-morpholinopropoxy)-[1,1′-biphenyl]-3-yl)-1H-benzo[d]imidazol-6-yl)methyl)piperidine-2-carboxylic acid]
20 | < 25 | COc1cc2oc(-c3cccc(-c4cccc(OCCCN5CCOCC5)c4)c3C)nc2cc1CN1CCCC1C(=O)O (centres unmarked) [Compound 20, ((6-methoxy-2-(2-methyl-3′-(3-morpholinopropoxy)-[1,1′-biphenyl]-3-yl)benzo[d]oxazol-5-yl)methyl)proline]
21 | < 25 | COc1cc2nc(-c3cccc(-c4cccc(OCCCN5CCOCC5)c4F)c3C)n(C)c2cc1N1CCCCC1C(=O)O (centres unmarked) [Compound 12, 1-(2-(2′-fluoro-2-methyl-3′-(3-morpholinopropoxy)-[1,1′-biphenyl]-3-yl)-5-methoxy-1-methyl-1H-benzo[d]imidazol-6-yl)piperidine-2-carboxylic acid]
22 | < 25 | COc1cc2nc(-c3cccc(-c4cccc(OCCCN5CCOCC5)c4)c3C)sc2cc1CN1CCCC1C(=O)O (centres unmarked) [Compound 26, ((5-methoxy-2-(2-methyl-3′-(3-morpholinopropoxy)-[1,1′-biphenyl]-3-yl)benzo[d]thiazol-6-yl)methyl)proline]

Same assay, conditions: HTRF, recombinant human PD-1 (Fc tag) / PD-L1 (His-tag), 25° C., PBS pH 7.4; class symbols; read-out: IC50

Row | IC50 [nM] | Structure (SMILES)
23 | < 25 | CCOc1cc2oc(-c3cccc(-c4cccc5c4CCN5C(=O)CCN4CCOCC4)c3C)nc2cc1CN1CCCCC1C(=O)O (centres unmarked) [Compound 39, 1-((6-ethoxy-2-(2-methyl-3-(1-(3-morpholinopropanoyl)indolin-4-yl)phenyl)benzo[d]oxazol-5-yl)methyl)piperidine-2-carboxylic acid]
24 | 25 to 150 | COc1cc2oc(-c3cccc(-c4cccc(OCCCN5CCOCC5)c4)c3C)nc2cc1CN(C)C [Compound 2, 1-(6-methoxy-2-(2-methyl-3′-(3-morpholinopropoxy)-[1,1′-biphenyl]-3-yl)benzo[d]oxazol-5-yl)-N,N-dimethylmethanamine]
25 | 25 to 150 | Cc1c(OCCCN2CCOCC2)cccc1-c1cccc(-c2nc3cc(CNCC(=O)O)c(N(C)C)cc3s2)c1C [Compound 36, ((2-(2,2′-dimethyl-3′-(3-morpholinopropoxy)-[1,1′-biphenyl]-3-yl)-6-(dimethylamino)benzo[d]thiazol-5-yl)methyl)glycine]

Same assay, conditions: HTRF, recombinant human PD-1 (Fc tag) / PD-L1 (His-tag), 25° C., PBS pH 7.4; numeric values; read-out: IC50

Row | IC50 [nM] | Structure (SMILES)
26 | 0.61 | COc1cc2oc(-c3cccc(-c4ccccc4)c3C)nc2cc1CN1CCCCC1C(=O)O (centres unmarked) [Compound 23, 1-((6-methoxy-2-(2-methyl-[1,1′-biphenyl]-3-yl)benzo[d]oxazol-5-yl)methyl)piperidine-2-carboxylic acid]
